Consider two compounds from ChEMBL document CHEMBL5653631, “A Potent and Selective ULK1 Inhibitor Suppresses Autophagy and Sensitizes Cancer Cells to Nutrient Stress” (iScience, 2018).

The term inhibition denotes the percentage by which the read-out fell short of the control.

Test [1] has as its target T1, Inhibitor of nuclear factor kappa-B kinase subunit beta (Homo sapiens) (UniProt O14920).
T1 sequence (whole entry): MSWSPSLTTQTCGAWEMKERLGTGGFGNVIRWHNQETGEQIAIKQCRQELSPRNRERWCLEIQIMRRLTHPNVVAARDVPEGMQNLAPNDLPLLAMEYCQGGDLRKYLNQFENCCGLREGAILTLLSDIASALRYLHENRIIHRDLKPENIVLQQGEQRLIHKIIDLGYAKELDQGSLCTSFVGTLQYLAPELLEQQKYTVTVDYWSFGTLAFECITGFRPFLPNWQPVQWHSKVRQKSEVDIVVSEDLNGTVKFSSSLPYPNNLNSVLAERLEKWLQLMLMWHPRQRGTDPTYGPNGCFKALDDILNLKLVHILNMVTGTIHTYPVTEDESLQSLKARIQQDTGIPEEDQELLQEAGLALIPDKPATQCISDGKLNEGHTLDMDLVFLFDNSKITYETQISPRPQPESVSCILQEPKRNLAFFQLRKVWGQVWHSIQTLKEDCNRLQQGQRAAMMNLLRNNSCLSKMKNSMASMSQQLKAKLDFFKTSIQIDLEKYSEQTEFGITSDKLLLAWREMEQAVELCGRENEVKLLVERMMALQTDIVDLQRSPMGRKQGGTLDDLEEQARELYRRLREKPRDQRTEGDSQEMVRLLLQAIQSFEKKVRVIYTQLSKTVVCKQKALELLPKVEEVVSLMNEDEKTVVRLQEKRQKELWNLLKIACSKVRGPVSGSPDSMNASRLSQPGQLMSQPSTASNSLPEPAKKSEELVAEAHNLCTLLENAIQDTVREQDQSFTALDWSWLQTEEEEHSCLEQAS
Nature of the test: Inhibition of human recombinant IKKb at 40 nM in presence of ATP by radiometric assay relative to control.

In test [2] the target is Serine/threonine-protein kinase 10 (Homo sapiens) (UniProt O94804). Nature of the test: Inhibition of human recombinant LOK at 40 nM in presence of ATP by radiometric assay relative to control.
Test [3] has as its target Serine/threonine-protein kinase PRP4 homolog (Homo sapiens) (UniProt Q13523). As to the kind of experiment: Inhibition of human recombinant PRP4 at 40 nM in presence of ATP by radiometric assay relative to control.
For test [4], the target named is Calcium/calmodulin-dependent protein kinase type 1B (Homo sapiens) (UniProt Q6P2M8). Nature of the test: Inhibition of human recombinant CaMK1b at 40 nM related to control ULK1.
For test [5], the target named is Transient receptor potential cation channel subfamily M member 7 (Homo sapiens) (UniProt Q96QT4). As to the kind of experiment: Inhibition of human recombinant ChaK1 at 40 nM related to control ULK1.
Test [6] addresses Casein kinase I isoform gamma-2 (Homo sapiens) (UniProt P78368). Nature of the test: Inhibition of human recombinant CK1g2 at 40 nM related to control ULK1.
Test [7] has as its target TGF-beta receptor type-2 (Homo sapiens) (UniProt P37173). As to the kind of experiment: Inhibition of human recombinant TGFbR2 at 500 nM in presence of ATP by radiometric assay relative to control.
In test [8] the target is Serine/threonine-protein kinase 32C (Homo sapiens) (UniProt Q86UX6). Nature of the test: Inhibition of human recombinant YANK3 at 500 nM in presence of ATP by radiometric assay relative to control.
Test [9] concerns the target T2, Tyrosine-protein kinase ZAP-70 (Homo sapiens) (UniProt P43403).
T2 sequence (whole entry): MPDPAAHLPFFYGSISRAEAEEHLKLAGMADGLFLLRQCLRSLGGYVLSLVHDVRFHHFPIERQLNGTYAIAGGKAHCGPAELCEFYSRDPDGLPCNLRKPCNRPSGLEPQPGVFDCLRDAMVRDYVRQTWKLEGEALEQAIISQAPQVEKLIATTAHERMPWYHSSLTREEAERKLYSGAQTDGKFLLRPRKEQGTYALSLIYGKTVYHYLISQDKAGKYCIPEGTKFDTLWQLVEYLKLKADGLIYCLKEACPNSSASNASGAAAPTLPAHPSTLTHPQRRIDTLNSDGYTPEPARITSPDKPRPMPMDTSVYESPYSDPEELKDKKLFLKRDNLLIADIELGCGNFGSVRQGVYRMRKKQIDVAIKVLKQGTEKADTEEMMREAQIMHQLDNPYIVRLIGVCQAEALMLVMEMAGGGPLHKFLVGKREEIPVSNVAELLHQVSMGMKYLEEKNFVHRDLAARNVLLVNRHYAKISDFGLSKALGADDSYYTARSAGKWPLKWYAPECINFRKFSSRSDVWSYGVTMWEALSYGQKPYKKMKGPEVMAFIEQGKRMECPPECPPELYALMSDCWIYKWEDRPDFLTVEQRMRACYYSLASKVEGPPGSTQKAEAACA
As to the kind of experiment: Inhibition of human recombinant ZAP70 at 500 nM in presence of ATP by radiometric assay relative to control.

Test [10] deals with Protein-tyrosine kinase 6 (Homo sapiens) (UniProt Q13882). Nature of the test: Inhibition of human recombinant BRK at 500 nM related to control ULK1.
Test [11] has as its target Cyclin-dependent kinase 6 (Homo sapiens) (UniProt Q00534). Nature of the test: Inhibition of human recombinant CDK6 at 500 nM related to control ULK1.
Test [12] deals with Serine/threonine-protein kinase 35 (Homo sapiens) (UniProt Q8TDR2). Nature of the test: Inhibition of human recombinant CLIK1 at 500 nM related to control ULK1.
In test [13] the target is T3, Serine/threonine-protein kinase Nek2 (Homo sapiens) (UniProt P51955).
T3 sequence (whole entry): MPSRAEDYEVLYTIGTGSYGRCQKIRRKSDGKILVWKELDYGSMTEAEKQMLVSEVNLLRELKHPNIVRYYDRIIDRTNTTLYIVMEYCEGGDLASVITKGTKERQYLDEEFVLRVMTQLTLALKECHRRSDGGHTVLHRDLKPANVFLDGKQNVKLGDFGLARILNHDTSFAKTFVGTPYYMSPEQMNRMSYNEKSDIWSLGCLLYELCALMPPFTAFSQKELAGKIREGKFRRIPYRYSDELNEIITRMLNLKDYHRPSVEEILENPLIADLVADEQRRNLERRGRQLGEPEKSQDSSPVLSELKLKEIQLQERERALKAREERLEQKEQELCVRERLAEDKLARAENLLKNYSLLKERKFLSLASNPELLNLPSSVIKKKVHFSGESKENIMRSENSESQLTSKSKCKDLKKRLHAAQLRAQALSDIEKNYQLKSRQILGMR
Nature of the test: Inhibition of human recombinant NEK2 at 500 nM related to control ULK1.

SMILES strings stand for the structures.

Chain of Cyclin-dependent kinase 6 (Homo sapiens) (Q00534 whole entry): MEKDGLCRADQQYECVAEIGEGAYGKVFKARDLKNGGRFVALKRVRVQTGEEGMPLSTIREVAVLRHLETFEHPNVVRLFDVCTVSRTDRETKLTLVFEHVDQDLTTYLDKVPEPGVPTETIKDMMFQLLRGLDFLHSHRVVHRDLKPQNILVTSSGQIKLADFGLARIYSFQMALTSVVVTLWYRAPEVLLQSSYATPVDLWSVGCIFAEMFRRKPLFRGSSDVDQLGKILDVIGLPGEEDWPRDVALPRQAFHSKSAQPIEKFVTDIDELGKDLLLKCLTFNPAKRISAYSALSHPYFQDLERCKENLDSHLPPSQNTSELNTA
Chain of Serine/threonine-protein kinase 35 (Homo sapiens) (Q8TDR2 whole entry): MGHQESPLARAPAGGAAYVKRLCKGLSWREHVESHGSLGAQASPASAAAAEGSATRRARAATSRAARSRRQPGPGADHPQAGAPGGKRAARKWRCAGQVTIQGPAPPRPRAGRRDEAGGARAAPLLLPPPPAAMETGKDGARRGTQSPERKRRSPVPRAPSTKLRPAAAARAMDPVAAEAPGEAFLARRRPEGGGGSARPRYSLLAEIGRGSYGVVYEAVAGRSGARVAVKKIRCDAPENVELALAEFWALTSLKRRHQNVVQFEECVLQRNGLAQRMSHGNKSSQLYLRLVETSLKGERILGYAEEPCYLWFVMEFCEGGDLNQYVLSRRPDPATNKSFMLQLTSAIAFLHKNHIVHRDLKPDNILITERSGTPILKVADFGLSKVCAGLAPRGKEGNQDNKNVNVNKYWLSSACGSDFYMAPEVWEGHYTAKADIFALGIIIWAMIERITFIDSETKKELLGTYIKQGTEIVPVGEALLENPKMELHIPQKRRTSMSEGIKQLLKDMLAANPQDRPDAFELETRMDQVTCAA
Chain of Calcium/calmodulin-dependent protein kinase type 1B (Homo sapiens) (Q6P2M8 whole entry): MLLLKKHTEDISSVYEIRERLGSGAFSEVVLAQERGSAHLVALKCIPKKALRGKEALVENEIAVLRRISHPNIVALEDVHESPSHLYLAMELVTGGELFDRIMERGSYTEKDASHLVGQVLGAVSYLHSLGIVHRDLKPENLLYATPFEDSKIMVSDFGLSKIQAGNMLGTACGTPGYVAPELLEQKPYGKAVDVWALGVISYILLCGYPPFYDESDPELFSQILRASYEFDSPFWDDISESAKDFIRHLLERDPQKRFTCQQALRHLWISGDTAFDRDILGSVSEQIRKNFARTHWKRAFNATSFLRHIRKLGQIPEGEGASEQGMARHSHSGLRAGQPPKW
Chain of Transient receptor potential cation channel subfamily M member 7 (Homo sapiens) (Q96QT4 whole entry, canonical isoform): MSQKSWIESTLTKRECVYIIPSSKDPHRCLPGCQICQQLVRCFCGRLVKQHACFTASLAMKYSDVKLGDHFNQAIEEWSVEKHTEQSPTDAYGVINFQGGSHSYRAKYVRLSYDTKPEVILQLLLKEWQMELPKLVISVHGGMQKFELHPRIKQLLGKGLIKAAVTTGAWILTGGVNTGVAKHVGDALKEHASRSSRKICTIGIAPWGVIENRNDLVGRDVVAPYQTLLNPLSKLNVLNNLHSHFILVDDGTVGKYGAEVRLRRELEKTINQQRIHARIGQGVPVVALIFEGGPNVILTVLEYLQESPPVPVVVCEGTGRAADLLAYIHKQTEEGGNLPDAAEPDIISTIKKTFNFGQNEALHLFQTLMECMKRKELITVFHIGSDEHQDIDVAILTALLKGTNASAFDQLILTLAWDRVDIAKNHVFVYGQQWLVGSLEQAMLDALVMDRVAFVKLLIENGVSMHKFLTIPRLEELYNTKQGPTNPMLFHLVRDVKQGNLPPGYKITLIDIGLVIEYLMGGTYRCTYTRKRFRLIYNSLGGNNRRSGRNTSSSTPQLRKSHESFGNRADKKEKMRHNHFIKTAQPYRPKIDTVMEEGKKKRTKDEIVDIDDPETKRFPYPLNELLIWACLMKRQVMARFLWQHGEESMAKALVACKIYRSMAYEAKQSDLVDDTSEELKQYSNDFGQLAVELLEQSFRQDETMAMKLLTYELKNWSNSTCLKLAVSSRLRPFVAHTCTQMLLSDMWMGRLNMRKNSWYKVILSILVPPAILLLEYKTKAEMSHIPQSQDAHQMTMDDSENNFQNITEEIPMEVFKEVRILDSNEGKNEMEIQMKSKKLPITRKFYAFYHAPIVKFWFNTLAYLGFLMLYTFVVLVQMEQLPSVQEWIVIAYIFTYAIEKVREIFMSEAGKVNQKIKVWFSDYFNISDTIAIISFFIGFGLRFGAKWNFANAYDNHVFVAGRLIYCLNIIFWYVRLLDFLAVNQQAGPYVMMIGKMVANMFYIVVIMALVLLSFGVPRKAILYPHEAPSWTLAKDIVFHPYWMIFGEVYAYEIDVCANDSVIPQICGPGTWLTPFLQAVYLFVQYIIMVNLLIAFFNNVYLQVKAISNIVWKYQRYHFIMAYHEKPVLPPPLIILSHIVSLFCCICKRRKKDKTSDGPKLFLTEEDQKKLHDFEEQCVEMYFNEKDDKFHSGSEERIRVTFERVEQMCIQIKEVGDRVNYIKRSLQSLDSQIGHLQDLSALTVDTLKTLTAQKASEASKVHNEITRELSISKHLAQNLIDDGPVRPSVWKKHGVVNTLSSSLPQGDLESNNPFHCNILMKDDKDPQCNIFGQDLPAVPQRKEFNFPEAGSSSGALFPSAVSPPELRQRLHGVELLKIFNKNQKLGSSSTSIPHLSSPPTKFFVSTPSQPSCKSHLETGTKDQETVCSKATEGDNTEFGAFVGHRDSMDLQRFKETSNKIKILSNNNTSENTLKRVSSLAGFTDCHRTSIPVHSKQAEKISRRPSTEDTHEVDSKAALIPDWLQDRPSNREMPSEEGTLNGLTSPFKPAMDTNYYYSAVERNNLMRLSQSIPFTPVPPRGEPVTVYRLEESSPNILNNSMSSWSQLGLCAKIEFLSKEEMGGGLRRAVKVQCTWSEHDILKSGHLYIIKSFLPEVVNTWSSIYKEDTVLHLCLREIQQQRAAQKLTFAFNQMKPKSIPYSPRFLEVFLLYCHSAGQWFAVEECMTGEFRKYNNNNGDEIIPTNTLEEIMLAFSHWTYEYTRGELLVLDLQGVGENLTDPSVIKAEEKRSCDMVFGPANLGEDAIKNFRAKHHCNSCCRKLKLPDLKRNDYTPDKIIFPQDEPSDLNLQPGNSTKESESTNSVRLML
Chain of Serine/threonine-protein kinase 32C (Homo sapiens) (Q86UX6 whole entry): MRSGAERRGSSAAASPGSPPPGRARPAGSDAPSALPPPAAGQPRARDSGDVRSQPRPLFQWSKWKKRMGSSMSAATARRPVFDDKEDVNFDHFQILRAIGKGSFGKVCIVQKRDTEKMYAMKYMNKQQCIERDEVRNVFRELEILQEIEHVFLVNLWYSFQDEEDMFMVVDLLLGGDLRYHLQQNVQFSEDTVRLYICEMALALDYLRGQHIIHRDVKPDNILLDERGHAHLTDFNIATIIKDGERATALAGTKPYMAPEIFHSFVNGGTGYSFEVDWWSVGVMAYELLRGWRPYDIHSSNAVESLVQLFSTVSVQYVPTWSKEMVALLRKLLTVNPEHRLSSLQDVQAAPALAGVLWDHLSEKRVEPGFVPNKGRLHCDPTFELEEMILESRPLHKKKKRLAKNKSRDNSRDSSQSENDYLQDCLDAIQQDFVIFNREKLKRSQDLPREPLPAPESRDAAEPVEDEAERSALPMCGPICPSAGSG
Chain of Serine/threonine-protein kinase 10 (Homo sapiens) (O94804 whole entry, looked up): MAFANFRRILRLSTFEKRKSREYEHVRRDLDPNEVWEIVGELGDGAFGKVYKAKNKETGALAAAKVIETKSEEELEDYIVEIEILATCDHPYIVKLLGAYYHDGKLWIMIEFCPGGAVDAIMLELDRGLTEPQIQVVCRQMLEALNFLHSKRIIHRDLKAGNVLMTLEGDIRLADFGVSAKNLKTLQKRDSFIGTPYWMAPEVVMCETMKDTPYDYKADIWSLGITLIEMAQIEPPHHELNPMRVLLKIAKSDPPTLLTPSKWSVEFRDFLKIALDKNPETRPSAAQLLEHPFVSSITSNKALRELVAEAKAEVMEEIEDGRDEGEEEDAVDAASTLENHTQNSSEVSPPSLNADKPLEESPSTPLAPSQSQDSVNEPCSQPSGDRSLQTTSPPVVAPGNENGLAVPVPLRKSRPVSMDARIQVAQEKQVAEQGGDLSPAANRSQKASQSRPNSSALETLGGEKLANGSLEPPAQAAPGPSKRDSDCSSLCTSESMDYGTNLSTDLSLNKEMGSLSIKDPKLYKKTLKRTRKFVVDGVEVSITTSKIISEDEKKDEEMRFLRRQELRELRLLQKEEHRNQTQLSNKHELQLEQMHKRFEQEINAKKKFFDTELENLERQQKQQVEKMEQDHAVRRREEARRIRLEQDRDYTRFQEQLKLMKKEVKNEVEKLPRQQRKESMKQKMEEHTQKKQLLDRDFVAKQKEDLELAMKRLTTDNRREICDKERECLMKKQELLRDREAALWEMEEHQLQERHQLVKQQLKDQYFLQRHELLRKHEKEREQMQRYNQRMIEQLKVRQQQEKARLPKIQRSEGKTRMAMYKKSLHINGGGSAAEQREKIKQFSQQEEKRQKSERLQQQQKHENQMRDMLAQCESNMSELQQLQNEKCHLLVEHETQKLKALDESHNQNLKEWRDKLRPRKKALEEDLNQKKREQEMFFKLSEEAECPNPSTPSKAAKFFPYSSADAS
Chain of Protein-tyrosine kinase 6 (Homo sapiens) (Q13882 whole entry, looked up): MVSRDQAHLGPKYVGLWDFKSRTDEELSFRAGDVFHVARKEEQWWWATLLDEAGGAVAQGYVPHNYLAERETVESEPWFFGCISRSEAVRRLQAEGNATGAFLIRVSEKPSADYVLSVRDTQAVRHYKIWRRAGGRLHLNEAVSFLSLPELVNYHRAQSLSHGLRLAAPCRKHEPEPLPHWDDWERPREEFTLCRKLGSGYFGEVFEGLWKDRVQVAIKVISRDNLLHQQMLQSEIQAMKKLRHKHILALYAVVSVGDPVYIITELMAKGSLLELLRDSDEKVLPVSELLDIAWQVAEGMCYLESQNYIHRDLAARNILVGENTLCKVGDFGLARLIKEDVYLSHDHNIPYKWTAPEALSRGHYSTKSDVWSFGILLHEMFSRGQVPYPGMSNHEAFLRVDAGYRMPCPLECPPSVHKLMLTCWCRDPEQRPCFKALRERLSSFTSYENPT

`O=C(N[C@@H](C1CC1)C(F)(F)F)c1cc(-c2cnn3cc(-c4ccc(F)cc4)cnc23)cs1`: the inhibition in [1] stood at 0%; in test [2] it was 0%; in [3] it was 6%. The results for the fold change (FC) in [4], in test [5] and in test [6] were 0, 0.01 and 0.07, respectively.

For `CNC(=O)c1ccccc1Oc1nc(Nc2cc(OC)c(OC)c(OC)c2)ncc1Br`, the inhibition in test [7] came to 2%; in test [8], 0%; in [9], 1%. For the same compound, the fold change (FC) was 0.03 in test [10], 0 in test [11], 0.04 in [12] and 0 in test [13].
